Read-outs that look alike come from different tables or passages of the source.
How the values were obtained:
BRG-1 = target: T1, BRG-1 (Homo sapiens, UniProt P51532); test: ATPase catalytic activity of BRG-1, ADP-Glo in vitro biochemical assay; details: ATPase catalytic activity, 30 nM BRG-1, 400 μM ATP
T1 construct: made in house; host or cells: High Five insect cells

BRM = target: T2, BRM (Homo sapiens, UniProt P51531); test: ATPase catalytic activity of BRM, ADP-Glo in vitro biochemical assay; details: ATPase catalytic activity, 30 nM BRM, 400 μM ATP
T2 construct: made in house; host or cells: High Five insect cells
T2 sequence (P51531 whole entry): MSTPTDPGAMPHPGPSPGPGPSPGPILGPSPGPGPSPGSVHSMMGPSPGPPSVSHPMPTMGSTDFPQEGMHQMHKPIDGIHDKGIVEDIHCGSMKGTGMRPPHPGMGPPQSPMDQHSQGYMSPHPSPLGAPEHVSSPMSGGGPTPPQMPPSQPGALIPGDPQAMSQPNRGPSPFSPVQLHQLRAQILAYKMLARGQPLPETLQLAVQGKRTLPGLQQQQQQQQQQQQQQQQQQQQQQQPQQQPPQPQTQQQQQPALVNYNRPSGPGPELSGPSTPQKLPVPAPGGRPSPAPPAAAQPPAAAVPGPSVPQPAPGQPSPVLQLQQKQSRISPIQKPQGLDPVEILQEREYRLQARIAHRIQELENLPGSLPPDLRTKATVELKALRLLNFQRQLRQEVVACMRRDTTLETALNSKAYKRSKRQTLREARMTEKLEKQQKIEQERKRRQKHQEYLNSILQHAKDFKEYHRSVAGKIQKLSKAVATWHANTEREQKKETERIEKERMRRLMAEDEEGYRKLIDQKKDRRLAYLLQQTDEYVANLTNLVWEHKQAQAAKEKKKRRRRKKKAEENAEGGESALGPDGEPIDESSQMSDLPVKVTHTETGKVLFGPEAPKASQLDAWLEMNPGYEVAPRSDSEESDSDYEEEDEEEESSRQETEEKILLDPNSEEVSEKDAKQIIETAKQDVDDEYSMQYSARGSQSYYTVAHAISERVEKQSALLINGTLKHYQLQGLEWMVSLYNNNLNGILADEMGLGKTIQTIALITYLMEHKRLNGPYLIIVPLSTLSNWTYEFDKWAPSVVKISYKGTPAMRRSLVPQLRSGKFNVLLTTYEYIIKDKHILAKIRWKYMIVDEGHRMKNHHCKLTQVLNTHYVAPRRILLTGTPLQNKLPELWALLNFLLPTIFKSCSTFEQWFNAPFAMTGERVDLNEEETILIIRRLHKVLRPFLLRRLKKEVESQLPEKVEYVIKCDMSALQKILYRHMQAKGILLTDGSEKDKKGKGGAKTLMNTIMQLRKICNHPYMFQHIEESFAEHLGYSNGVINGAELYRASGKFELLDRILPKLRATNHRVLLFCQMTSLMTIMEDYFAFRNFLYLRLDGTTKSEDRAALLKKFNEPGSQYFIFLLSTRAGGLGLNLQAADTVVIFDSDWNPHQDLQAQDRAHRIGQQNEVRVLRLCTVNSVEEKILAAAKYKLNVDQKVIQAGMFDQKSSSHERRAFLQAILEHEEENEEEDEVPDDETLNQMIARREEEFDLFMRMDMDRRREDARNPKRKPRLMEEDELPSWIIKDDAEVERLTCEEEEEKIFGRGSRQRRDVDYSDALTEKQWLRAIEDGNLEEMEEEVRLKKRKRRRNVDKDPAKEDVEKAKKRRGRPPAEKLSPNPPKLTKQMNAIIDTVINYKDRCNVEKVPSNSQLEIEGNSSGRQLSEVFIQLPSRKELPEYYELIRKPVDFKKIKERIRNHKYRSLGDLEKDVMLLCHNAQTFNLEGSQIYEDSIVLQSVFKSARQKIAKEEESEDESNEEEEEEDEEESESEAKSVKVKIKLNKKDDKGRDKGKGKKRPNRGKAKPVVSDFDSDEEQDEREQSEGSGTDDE

T1 sequence (P51532 whole entry): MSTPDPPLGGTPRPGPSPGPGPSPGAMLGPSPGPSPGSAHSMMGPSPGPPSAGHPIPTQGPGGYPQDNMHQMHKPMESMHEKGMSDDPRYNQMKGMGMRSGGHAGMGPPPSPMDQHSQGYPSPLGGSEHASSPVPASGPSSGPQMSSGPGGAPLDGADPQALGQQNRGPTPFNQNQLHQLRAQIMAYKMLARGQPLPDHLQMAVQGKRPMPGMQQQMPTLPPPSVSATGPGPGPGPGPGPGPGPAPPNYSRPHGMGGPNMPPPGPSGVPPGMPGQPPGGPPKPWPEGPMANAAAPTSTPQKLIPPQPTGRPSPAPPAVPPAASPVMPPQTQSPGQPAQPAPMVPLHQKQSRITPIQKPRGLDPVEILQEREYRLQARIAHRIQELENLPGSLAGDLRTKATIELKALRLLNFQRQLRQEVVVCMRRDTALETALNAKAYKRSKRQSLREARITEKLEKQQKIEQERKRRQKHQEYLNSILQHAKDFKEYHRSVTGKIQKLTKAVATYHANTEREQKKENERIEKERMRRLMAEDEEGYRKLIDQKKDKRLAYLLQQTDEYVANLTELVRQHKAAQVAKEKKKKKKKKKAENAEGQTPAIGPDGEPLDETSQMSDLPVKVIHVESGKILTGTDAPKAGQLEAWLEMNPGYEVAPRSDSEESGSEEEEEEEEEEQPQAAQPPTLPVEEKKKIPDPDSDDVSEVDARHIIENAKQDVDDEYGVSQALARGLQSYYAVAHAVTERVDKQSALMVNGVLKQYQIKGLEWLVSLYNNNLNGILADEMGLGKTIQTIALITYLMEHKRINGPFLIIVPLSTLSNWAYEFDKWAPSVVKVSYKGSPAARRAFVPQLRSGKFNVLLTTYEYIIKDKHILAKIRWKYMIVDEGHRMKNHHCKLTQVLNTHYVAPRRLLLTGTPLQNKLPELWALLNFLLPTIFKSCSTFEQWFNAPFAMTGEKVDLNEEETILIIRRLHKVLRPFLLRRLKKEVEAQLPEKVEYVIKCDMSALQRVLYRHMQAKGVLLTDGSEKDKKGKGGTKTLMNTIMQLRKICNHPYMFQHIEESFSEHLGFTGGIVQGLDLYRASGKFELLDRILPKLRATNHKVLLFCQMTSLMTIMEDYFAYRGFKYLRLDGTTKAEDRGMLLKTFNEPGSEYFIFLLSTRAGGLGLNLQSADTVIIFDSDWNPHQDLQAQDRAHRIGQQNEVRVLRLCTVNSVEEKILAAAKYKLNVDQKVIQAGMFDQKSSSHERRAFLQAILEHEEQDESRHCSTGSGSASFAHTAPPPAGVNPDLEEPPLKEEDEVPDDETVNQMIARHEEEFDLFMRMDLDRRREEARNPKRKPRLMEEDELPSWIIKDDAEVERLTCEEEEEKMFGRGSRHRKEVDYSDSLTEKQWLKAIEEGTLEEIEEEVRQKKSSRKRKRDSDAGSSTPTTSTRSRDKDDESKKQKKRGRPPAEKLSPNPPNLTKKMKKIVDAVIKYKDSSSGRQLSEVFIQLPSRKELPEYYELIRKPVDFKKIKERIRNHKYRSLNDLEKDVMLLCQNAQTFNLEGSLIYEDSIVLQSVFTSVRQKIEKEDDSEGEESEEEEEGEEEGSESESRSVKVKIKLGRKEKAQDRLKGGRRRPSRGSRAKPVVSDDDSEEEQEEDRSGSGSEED

| Compound | IC50 (BRG-1; read-out: BRG1 IP50 (μM)*) | IC50 (BRM; read-out: BRM IP50 (μM)*) | IC50 (BRG-1; read-out: BRG1 IP50) | IC50 (BRM; read-out: BRM IP50) |
| --- | --- | --- | --- | --- |
| Cn1ncc(-c2cccc(-c3csc(NC(=O)CNC(=O)c4ccn(C(C)(C)C)c4)n3)n2)n1 [Compound 382, 1-tert-butyl-N-[2-[[4-[6-(2-methyltriazol-4-yl)-2-pyridyl]thiazol-2-yl]amino]-2-oxo-ethyl]pyrrole-3-carboxamide] | > 0.01 µM | > 0.01 µM |  |  |
| CN1CCCc2ccc(-c3csc(NC(=O)CNC(=O)c4ccn(C(C)(C)C)c4)n3)nc21 [Compound 383] | > 0.1 µM | > 0.01 µM |  |  |
| C[C@@H]1CN(c2cc(-c3csc(NC(=O)CNC(=O)c4ccn(S(C)(=O)=O)c4)n3)cc(F)c2F)C[C@H](C)O1 [Compound 384] | < 0.01 µM | < 0.01 µM |  |  |
| CS(=O)(=O)n1ccc(C(=O)NCC(=O)Nc2nc(-c3cccc([C@H]4CC[C@H](O)CC4)c3)cs2)c1 [Compound 386, N-(2-((4-(3-((trans)-4-hydroxycyclohexyl)phenyl)thiazol-2-yl)amino)-2-oxoethyl)-1-(methylsulfonyl)-1H-pyrrole-3-carboxamide] |  |  | < 0.01 µM | < 0.01 µM |
| CS(=O)(=O)n1ccc(C(=O)NCC(=O)Nc2nc(-c3cccc([C@H]4CC[C@@H](O)CC4)c3)cs2)c1 [Compound 387, N-(2-((4-(3-((cis)-4-hydroxycyclohexyl)phenyl)thiazol-2-yl)amino)-2-oxoethyl)-1-(methylsulfonyl)-1H-pyrrole-3-carboxamide] |  |  | > 0.01 µM | > 0.01 µM |
| CC1(C)CC(c2cccc(-c3csc(NC(=O)CNC(=O)c4ccn(S(C)(=O)=O)c4)n3)c2)CC(C)(C)O1 [Compound 388] |  |  | > 0.1 µM | > 0.01 µM |
| CS(=O)(=O)n1ccc(C(=O)NCC(=O)Nc2nc(-c3cccc(C4=CCN(C5COC5)CC4)c3)cs2)c1 [Compound 389] |  |  | > 0.01 µM | > 0.01 µM |
| CS(=O)(=O)n1ccc(C(=O)NCC(=O)Nc2nc(-c3cccc([C@H]4CCCCO4)c3)cs2)c1 [Compound 393] |  |  | > 0.01 µM | > 0.01 µM |
| CN1CCCc2ccc(-c3csc(NC(=O)CNC(=O)c4ccn(S(C)(=O)=O)c4)n3)nc21 [Compound 394] |  |  | > 0.01 µM | > 0.01 µM |
| CC(C)(C)n1ccc(C(=O)NCC(=O)Nc2nc(-c3cccc(C4(O)CC4)n3)cs2)c1 [Compound 395] |  |  | > 0.1 µM | > 0.1 µM |
| CS(=O)(=O)n1ccc(C(=O)NCC(=O)Nc2nc(-c3cccc(C4=CCCOC4)c3)cs2)c1 [Compound 396, N-[2-[[4-[3-(3,6-dihydro-2H-pyran-5-yl)phenyl]thiazol-2-yl]amino]-2-oxo-ethyl]-1-methylsulfonyl-pyrrole-3-carboxamide] |  |  | > 0.01 µM | < 0.01 µM |
| CC(C)(C)n1ccc(C(=O)NCC(=O)Nc2nc(-c3cccc(N4CCC5(CC4)COC5)c3)cs2)c1 [Compound 397, N-(2-((4-(3-(2-oxa-7-azaspiro[3.5]nonan-7-yl)phenyl)thiazol-2-yl)amino)-2-oxoethyl)-1-(tert-butyl)-1H-pyrrole-3-carboxamide] |  |  | > 0.1 µM | > 0.1 µM |
| CS(=O)(=O)n1ccc(C(=O)NCC(=O)Nc2nc(-c3cccc(C4CCOCC4)c3)cs2)c1 [Compound 399] |  |  | > 0.01 µM | > 0.01 µM |
| CS(=O)(=O)n1ccc(C(=O)NCC(=O)Nc2nc(-c3cccc(C4=CCOCC4)c3)cs2)c1 [Compound 400] |  |  | < 0.01 µM | < 0.01 µM |
| Cc1ccc(Cl)c(-c2cc(-c3csc(NC(=O)CNC(=O)c4ccn(S(C)(=O)=O)c4)n3)ccc2C)n1 [Compound 401, N-(2-((4-(3-(3-chloro-6-methylpyridin-2-yl)-4-methylphenyl)thiazol-2-yl)amino)-2-oxoethyl)-1-(methylsulfonyl)-1H-pyrrole-3-carboxamide] |  |  | > 0.1 µM | > 0.1 µM |
| Cc1cc(-c2cccc(-c3csc(NC(=O)CNC(=O)c4ccn(C(C)(C)C)c4)n3)c2)cnn1 [Compound 402] |  |  | > 0.01 µM | < 0.01 µM |
| CCS(=O)(=O)n1ccc(C(=O)NCC(=O)Nc2nc(-c3cccc(-c4cnn(C)n4)c3)cs2)c1 [Compound 403] |  |  | > 0.01 µM | > 0.01 µM |

| Compound | IC50 (BRG-1; read-out: BRG1 IP50 (μM)*) | IC50 (BRM; read-out: BRM IP50 (μM)*) | IC50 (BRG-1; read-out: BRG1 IP50) | IC50 (BRM; read-out: BRM IP50) |
| --- | --- | --- | --- | --- |
| CS(=O)(=O)n1ccc(C(=O)NCC(=O)Nc2nc(-c3cccc(-c4cc5n(n4)CCOC5)c3)cs2)c1 [Compound 404] |  |  | > 0.01 µM | < 0.01 µM |
| Cc1cc(C)nc(-c2cccc(-c3csc(NC(=O)CNC(=O)c4ccn(S(C)(=O)=O)c4)n3)c2)n1 [Compound 405] |  |  | < 0.01 µM | < 0.01 µM |
| Cc1cc(C)nc(-c2cccc(-c3csc(NC(=O)CNC(=O)c4ccn(S(C)(=O)=O)c4)n3)c2)c1 [Compound 406] |  |  | < 0.01 µM | < 0.01 µM |
| Cc1cccc(-c2cccc(-c3csc(NC(=O)CNC(=O)c4ccn(S(C)(=O)=O)c4)n3)c2)n1 [Compound 407] |  |  | < 0.01 µM | < 0.01 µM |
| CS(=O)(=O)n1ccc(C(=O)NCC(=O)Nc2nc(-c3cccc(-c4ccnc(N5CCC5)n4)c3)cs2)c1 [Compound 408, N-[2-[[4-[3-[2-(azetidin-1-yl)pyrimidin-4-yl]phenyl]thiazol-2-yl]amino]-2-oxo-ethyl]-1-methylsulfonyl-pyrrole-3-carboxamide] |  |  | < 0.01 µM | < 0.01 µM |
| CS(=O)(=O)n1ccc(C(=O)NCC(=O)Nc2nc(-c3cccc(-c4ccnc(C5CC5)n4)c3)cs2)c1 [Compound 409] |  |  | < 0.01 µM | < 0.01 µM |
| CS(=O)(=O)n1ccc(C(=O)NCC(=O)Nc2nc(-c3cccc(-c4ccnc(Cl)n4)c3)cs2)c1 [Compound 410] |  |  | < 0.01 µM | < 0.01 µM |
| CC1(C)C=C(c2cccc(-c3csc(NC(=O)CNC(=O)c4ccn(S(C)(=O)=O)c4)n3)c2)CC(C)(C)O1 [Compound 411] |  |  | > 0.01 µM | > 0.01 µM |
| Cc1cc(-c2cccc(-c3csc(NC(=O)CNC(=O)c4ccn(S(C)(=O)=O)c4)n3)c2)nc(C)n1 [Compound 412] |  |  | < 0.01 µM | < 0.01 µM |
| Cc1cc(-c2cccc(-c3csc(NC(=O)CNC(=O)c4ccn(S(C)(=O)=O)c4)n3)c2)c(F)cn1 [Compound 413] |  |  | < 0.01 µM | < 0.01 µM |
| CNC(=O)C(C)(C)n1ccc(-c2cccc(-c3csc(NC(=O)CNC(=O)c4ccn(S(C)(=O)=O)c4)n3)c2)n1 [Compound 414, N-[2-[[4-[3-[1-[1,1-dimethyl-2-(methylamino)-2-oxo-ethyl]pyrazol-3-yl]phenyl]thiazol-2-yl]amino]-2-oxo-ethyl]-1-methylsulfonyl-pyrrole-3-carboxamide] |  |  | < 0.01 µM | < 0.01 µM |
| CC(C)(C)n1ccc(C(=O)NCC(=O)Nc2nc(-c3cccc(-c4cc5n(n4)CCOC5)c3)cs2)c1 [Compound 415] |  |  | > 0.01 µM | > 0.01 µM |
| Cc1nccc(-c2cccc(-c3csc(NC(=O)CNC(=O)c4ccn(S(C)(=O)=O)c4)n3)c2)n1 [Compound 416] |  |  | < 0.01 µM | < 0.01 µM |
| Cc1cccc(-c2cccc(-c3csc(NC(=O)CNC(=O)c4ccn(C(C)(C)C)c4)n3)c2)n1 [Compound 417] |  |  | > 0.01 µM | < 0.01 µM |
| CN(C)C(=O)C(C)(C)n1ccc(-c2cccc(-c3csc(NC(=O)CNC(=O)c4ccn(S(C)(=O)=O)c4)n3)c2)n1 [Compound 418] |  |  | > 0.01 µM | > 0.01 µM |
| CS(=O)(=O)n1ccc(C(=O)NCC(=O)Nc2nc(-c3cccc([C@@H]4CCCOC4)c3)cs2)c1 [Compound 419, 1-methylsulfonyl-N-[2-oxo-2-[[4-[3-[(3S)-tetrahydropyran-3-yl]phenyl]thiazol-2-yl]amino]ethyl]pyrrole-3-carboxamide] |  |  | > 0.1 µM | > 0.01 µM |
